Measured values as given in PMC5420810 (Annals of Clinical and Translational Neurology, 2017).

Columns and labels:
[1] = tested on: Scn1a +/− mice; assay: Hyperthermia‐induced seizures; assay type: in vivo, mouse; details: for Effect on hyperthermia‐induced seizure response: single‐point ip doses targeting human therapeutic range (Table 1)
[2] = tested on: Scn1a +/− mice; assay: Survival analysis; assay type: in vivo, mouse; details: for Mice surviving through P30: naïve mice, chow treatment from P18, untreated 67% (14/21)
[3] = tested on: Dravet syndrome patients; assay: Retrospective chart review of anticonvulsant responses in Dravet syndrome; assay type: in vivo, human; details: for Patients with effective response with tolerable side effects / Effectiveness in Dravet syndrome cohort: patient or parent‐reported
[4] = Pharmacokinetic analysis of clobazam and stiripentol after a single ip injection; assay type: in vivo, Wild‐type and Scn1a +/− mice
[5] = tested on: Scn1a +/− mice; assay: Spontaneous seizure; assay type: in vivo, mouse; details: for Effect on spontaneous GTCS frequency: subchronic treatment in chow, naïve mice, 60 h recording
[6] = tested on: Scn1a +/− mice; assay: Spontaneous GTCS following hyperthermic seizure priming; assay type: in vivo, mouse; details: hyperthermia‐primed, clobazam 160 mg/kg chow, 60 h P19–P21 (4/16); untreated 61%
[7] = Plasma drug concentration after subchronic oral treatment in chow; details: for Subchronic treatment plasma concentration: mg/kg chow: carbamazepine 7500, clobazam 160 (NCLB = metabolite after clobazam), lamotrigine 125, levetiracetam 1350, phenobarbital 300, stiripentol 4000, topiramate 850, valproic acid 4500, mean ± SEM, n = 5–8
[8] = single ip 10 mg/kg clobazam, analyte = labelled substance

For `NC(=O)N1c2ccccc2C=Cc2ccccc21` [Carbamazepine], the “Effect on hyperthermia‐induced seizure response” value [1] was “no effect”, the “Mice surviving through P30” value [2] was 100% and the “Patients with significant worsening of seizures” value ([3]; Dravet syndrome cohort) was “approximately 50%”. The “Patients with significant worsening of seizures (patients/patients trialed)” value ([3]; Dravet syndrome cohort) was 16/32.

With `CN1C(=O)CC(=O)N(c2ccccc2)c2cc(Cl)ccc21` [Clobazam] the AUC(0-inf) ([4]; mouse, plasma, ip, 10 mg/kg) was 2.58 µg·h/mL, the half-life ([4]; mouse, plasma, ip, 10 mg/kg) was 0.633 h and the “Protection from hyperthermia‐induced GTCS” value (shortened to “Protection”) ([1]; clobazam 0.1 mg/kg ip, P14–P16) was 37.5%. For the same compound, the “Protection” value ([1]; clobazam 1 mg/kg ip) was 50%, the “Protection” value ([1]; clobazam 10 mg/kg ip) was “Complete protection” and the “Effect on spontaneous GTCS frequency” value [5] was “did not result in a statistically significant change”. For the same compound, the “Mice exhibiting spontaneous GTCS” value [6] was 25%, the “Cases with seizure reduction” value ([3]; Dravet syndrome cohort) was ~75% and the “Patients with effective response with tolerable side effects” value (from here on “Patients with effective response”) ([3]; Dravet syndrome cohort) was > 50%. The “Subchronic treatment plasma concentration” value [7] was “BQL”.

For `Nc1nnc(-c2cccc(Cl)c2Cl)c(N)n1` [Lamotrigine], the “Mice that experienced a hyperthermia‐induced GTCS” value ([1]; lamotrigine 20 mg/kg ip, 12 mice, vehicle 10 of 12) was 12 mice, the “Threshold temperature for hyperthermia‐induced GTCS” value ([1]; lamotrigine 20 mg/kg ip, vehicle C 41.8 ± 0.1) was 40.5 ± 0.3 °C and the “Effect on hyperthermia‐induced seizure response” value [1] was “significantly worsened”. The “Seizures that escalated to tonic hindlimb extension” value ([5]; naïve cohort, lamotrigine chow, untreated 33% (17/52)) was “None of the 155 seizures”, the “Effect on spontaneous GTCS frequency” value [5] was “significantly worsened” and the “Survival through P42 (6‐week survival)” value ([2]; lamotrigine chow from P18, untreated 68% (15/22)) was “completely prevented lethality”. For the same compound, the “Patients with significant worsening of seizures” value ([3]; Dravet syndrome cohort) was “approximately 50%” and the “Patients with significant worsening of seizures (patients/patients trialed)” value ([3]; Dravet syndrome cohort) was 25/50.

With `CC[C@@H](C(N)=O)N1CCCC1=O` [Levetiracetam] the “Effect on spontaneous GTCS frequency” value [5] was “did not result in a statistically significant change”, the “Mice surviving through P30” value [2] was 100% and the “Effectiveness in Dravet syndrome cohort” value [3] was “limited effectiveness”.

With `O=C1CC(=O)N(c2ccccc2)c2cc(Cl)ccc2N1` [NCLB, N‐desmethylclobazam] the Cmax in plasma [4, 8] was 3100 ng/mL, the tmax [4, 8] was 1.5 h and the “Subchronic treatment plasma concentration” value [7] was 0.6 ± 0.03 µg/mL.

With `CCC1(c2ccccc2)C(=O)NC(=O)NC1=O` [Phenobarbital] the “Effect on spontaneous GTCS frequency” value [5] was “did not result in a statistically significant change”, the “Effectiveness in Dravet syndrome cohort” value [3] was “limited effectiveness” and the concentration at 24 h ([7]; mouse, plasma, oral, 300 mg per kg of chow, Plasma level, hyperthermia‐primed mice, phenobarbital chow, 24 h post seizure induction, primed) was 17800 ± 3200 ng/mL.

For `O=C1NC(=O)C(c2ccccc2)(c2ccccc2)N1` [Phenytoin], the “Effect on hyperthermia‐induced seizure response” value [1] was “no effect”, the “Patients with significant worsening of seizures” value ([3]; Dravet syndrome cohort) was “approximately 50%” and the “Patients with significant worsening of seizures (patients/patients trialed)” value ([3]; Dravet syndrome cohort) was 15/31.

In the case of `CC(C)(C)C(O)/C=C/c1ccc2c(c1)OCO2` (stereo not shown) [Stiripentol], the AUC(0-inf) ([4]; mouse, plasma, ip, 100 mg/kg) is reported as 210 µg·h/mL, the Cmax ([4]; mouse, plasma, ip, 100 mg/kg) is reported as 46000 ng/mL and the half-life ([4]; mouse, plasma, ip, 100 mg/kg) is reported as 2.82 h. For the same compound, the tmax ([4]; mouse, plasma, ip, 100 mg/kg) was 1.5 h, the “Effect on hyperthermia‐induced seizure response” value [1] was “no effect” and the “Effect on hyperthermia seizure threshold temperature vs vehicle” value ([1]; stiripentol 100 mg/kg ip) was “increased threshold temperature”. For the same compound, the “Protected from hyperthermia‐induced GTCS” value ([1]; stiripentol 300 mg/kg ip (3/13)) was 23% and the “Patients with effective response” value ([3]; Dravet syndrome cohort) was > 50%.

With `CC1(C)O[C@@H]2[C@@H](CO[C@@]3(COS(N)(=O)=O)OC(C)(C)O[C@@H]23)O1` [Topiramate] the “Effect on hyperthermia‐induced seizure response” value [1] was “no effect”, the “Mice surviving through P30” value [2] was 100% and the “Patients with effective response” value ([3]; Dravet syndrome cohort) was “less than 45%”.

For `CCCC(CCC)C(=O)O` [Valproic Acid], the “Effect on hyperthermia‐induced seizure response” value [1] was “no effect”, the “Protection” value ([1]; valproic acid 100 mg/kg ip) was 30% and the “Protection” value ([1]; valproic acid 200 mg/kg ip) was 50%. The “Protection” value ([1]; valproic acid 300 mg/kg ip) was 100%, the “Effect on spontaneous GTCS frequency” value [5] was “did not result in a statistically significant change” and the “Patients with effective response” value ([3]; Dravet syndrome cohort) was > 50%.

With `NS(=O)(=O)Cc1noc2ccccc12` [Zonisamide] the “Effectiveness in Dravet syndrome cohort” value [3] was “limited effectiveness”.

With `O=C1CN=C(c2ccccc2Cl)c2cc([N+](=O)[O-])ccc2N1` [clonazepam] the “Patients with effective response” value ([3]; Dravet syndrome cohort) was “less than 45%”.

With `NC(=O)N1c2ccccc2CC(=O)c2ccccc21` [oxcarbazepine] the “Patients with significant worsening of seizures” value ([3]; Dravet syndrome cohort) was “approximately 50%” and the “Patients with significant worsening of seizures (patients/patients trialed)” value ([3]; Dravet syndrome cohort) was 28/50.
